Laboratory results taken from patent publication US9365511B2, “Biphenyl-ethyl-pyrrolidine derivatives as histamine H3 receptor modulators for the treatment of cognitive disorders” (Arena Pharmaceuticals, Inc., priority 2013, dated 2016).
Entries after “also recorded” stand apart in the source; their conditions may differ.

Target: human H3 receptor (Homo sapiens (Human), UniProt Q9Y5N1)
Assay: Human H3 receptor HTRF cAMP assay
Format: cell-based
Details: HEK293 cells expressing the human H3 receptor, forskolin 2 μM; read-out: IC50 H3R
Excerpt: Homogeneous time-resolved fluorescence assays (HTRF®, Cisbio) detect levels of cAMP in lysed cell preparations using a europium or terbium cryptate-labeled anti-cAMP antibody and fluorophore-labeled cAMP (cAMP-d2). In the absence of exogenous cAMP, the anti-cAMP antibody binds to cAMP-d2. Photoexcitation of the cryptate donor results in a combination of cryptate emission at 620 nm and fluorescence resonance energy transfer (FRET) from the cryptate to the acceptor d2 fluorophore, which then fluoresces at 665 nm. The 620/665 nm emission ratio is monitored. In the presence of exogenous cAMP, which competes with cAMP-d2 for binding to the anti-cAMP antibody, FRET is decreased and the […], providing a sensitive and accurate means to measure cAMP levels in biological assays.
Compounds of the present invention were evaluated using the human H3 receptor (H3R) HTRF cAMP assay. In this assay, HEK293 cells expressing the human H3 receptor were suspended in PBS containing 100 μM IBMX and plated into 384-well assay plates (Perkin Elmer Proxiplate 384-Plus; 15,000 cells per well; 5 μL plating volume) and allowed to equilibrate for an hour. Test compounds were serially diluted in 100% DMSO and then further diluted in PBS containing forskolin (2 μM). Test compounds (5 μL) were then added to the assay plate and the mixture was incubated for 1 hour. HTRF assay reagents (Cisbio, Dynamic 2 cAMP Kit), cAMP-d2 and cryptate-labeled anti-cAMP antibody, are mixed with cell lysis buffer and added to the assay plate. After 1-hour incubation with these reagents, the assay plate was read on an HTRF-compatible microplate reader (Perkin Elmer EnVision or BMG Pherastar). A cAMP standard curve was included on each assay plate and HTRF emission ratios for test compounds were fit to this curve to generate accurate measures of cAMP levels in each test well.

Sequence of human H3 receptor (Q9Y5N1 whole entry): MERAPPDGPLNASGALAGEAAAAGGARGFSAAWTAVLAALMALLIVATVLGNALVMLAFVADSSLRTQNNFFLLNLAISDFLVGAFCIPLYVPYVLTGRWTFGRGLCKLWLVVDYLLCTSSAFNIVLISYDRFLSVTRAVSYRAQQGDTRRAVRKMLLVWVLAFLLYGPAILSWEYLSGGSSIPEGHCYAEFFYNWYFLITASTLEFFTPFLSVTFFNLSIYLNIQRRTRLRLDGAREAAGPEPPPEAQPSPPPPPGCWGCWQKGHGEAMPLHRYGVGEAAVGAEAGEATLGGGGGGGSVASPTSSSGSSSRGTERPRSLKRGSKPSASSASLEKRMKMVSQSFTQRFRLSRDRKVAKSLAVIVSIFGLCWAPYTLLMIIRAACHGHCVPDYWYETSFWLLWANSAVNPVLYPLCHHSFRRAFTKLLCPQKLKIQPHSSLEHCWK

IC50 [nM] | Structure (SMILES)
2.1 | C[C@H](NC(=O)CCc1ccc(-c2ccc(CCN3CCC[C@H]3C)cc2)cc1)C(=O)OC(C)(C)C [Compound 13, (S)-tert-Butyl 2-(3-(4′-(2-((R)-2-Methylpyrrolidin-1-yl)ethyl)biphenyl-4-yl)propanamido)propanoate]
0.95 | C[C@@H]1CCCN1CCc1ccc(-c2ccc(CCC(=O)NC(C)(C)C(=O)OC(C)(C)C)cc2)cc1 [Compound 12, (R)-tert-Butyl 2-Methyl-2-(3-(4′-(2-(2-methylpyrrolidin-1-yl)ethyl)biphenyl-4-yl)propanamido)propanoate]
1.1 | COC(=O)CCc1ccc(-c2ccc(CCN3CCC[C@H]3C)cc2)cc1 [Compound 9, (R)-Methyl 3-(4′-(2-(2-Methylpyrrolidin-1-yl)ethyl)biphenyl-4-yl)propanoate]
0.79 | C[C@H](NC(=O)CCc1ccc(-c2ccc(CCN3CCC[C@H]3C)cc2)cc1)C(=O)O [Compound 18, (S)-2-(3-(4′-(2-((R)-2-methylpyrrolidin-1-yl)ethyl)biphenyl-4-yl)propanamido)propanoic acid]
1.2 | COC(=O)C(C)(C)NC(=O)c1ccc(-c2ccc(CCN3CCC[C@H]3C)cc2)cc1 [Compound 38, (R)-Methyl 2-Methyl-2-(4′-(2-(2-methylpyrrolidin-1-yl)ethyl)biphenyl-4-ylcarboxamido)propanoate]
0.93 | C[C@@H]1CCCN1CCc1ccc(-c2ccc(CCn3cnnn3)cc2)cc1 [Compound 7, (R)-1-(2-(4′-(2-(2-Methylpyrrolidin-1-yl)ethyl)biphenyl-4-yl)ethyl)-1H-tetrazole]
6.9 | C[C@@H]1CCCN1CCc1ccc(-c2ccc(CCc3nnn[nH]3)cc2)cc1 [Compound 44, (R)-5-(2-(4′-(2-(2-Methylpyrrolidin-1-yl)ethyl)biphenyl-4-yl)ethyl)-1H-tetrazole]
1.9 | COC(=O)CNC(=O)C1(c2ccc(-c3ccc(CCN4CCC[C@H]4C)cc3)cc2)CCCC1 [Compound 27, (R)-Methyl 2-(1-(4′-(2-(2-Methylpyrrolidin-1-yl)ethyl)biphenyl-4-yl)cyclopentanecarboxamido)acetate]
5.5 | C[C@@H]1CCCN1CCc1ccc(-c2ccc(COCC(=O)O)cc2)cc1 [Compound 5, (R)-2-((4′-(2-(2-Methylpyrrolidin-1-yl)ethyl)biphenyl-4-yl)methoxy)acetic Acid]
1.2 | C[C@@H]1CCCN1CCc1ccc(-c2ccc(CCn3ncnn3)cc2)cc1 [Compound 8, (R)-2-(2-(4′-(2-(2-Methylpyrrolidin-1-yl)ethyl)biphenyl-4-yl)ethyl)-2H-tetrazole]
3.8 | C[C@@H]1CCCN1CCc1ccc(-c2ccc(C(=O)O)cc2)cc1 [Compound 1, (R)-4′-(2-(2-Methylpyrrolidin-1-yl)ethyl)biphenyl-4-carboxylic Acid]
2.5 | C[C@@H]1CCCN1CCc1ccc(-c2ccc(C(=O)NCCC(=O)O)cc2)cc1 [Compound 43, (R)-3-(4′-(2-(2-Methylpyrrolidin-1-yl)ethyl)biphenyl-4-ylcarboxamido)propanoic Acid]
3.8 | C[C@@H]1CCCN1CCc1ccc(-c2ccc(CCC(=O)NCC(=O)OC(C)(C)C)cc2)cc1 [Compound 26, (R)-tert-Butyl 2-(3-(4′-(2-(2-Methylpyrrolidin-1-yl)ethyl)biphenyl-4-yl)propanamido)acetate]
3 | CCOC(=O)C1CCCCC1NC(=O)C1(c2ccc(-c3ccc(CCN4CCC[C@H]4C)cc3)cc2)CCCC1 (stereo in doubt) [Compound 20, (1R,2S)-Ethyl 2-(1-(4′-(2-((R)-2-Methylpyrrolidin-1-yl)ethyl)biphenyl-4-yl)cyclopentanecarboxamido)cyclohexanecarboxylate]
2.1 | C[C@@H]1CCCN1CCc1ccc(-c2ccc(C3(C(=O)NCCCC(=O)O)CCCC3)cc2)cc1 [Compound 33, (R)-4-(1-(4′-(2-(2-Methylpyrrolidin-1-yl)ethyl)biphenyl-4-yl)cyclopentanecarboxamido)butanoic Acid]
0.78 | C[C@@H]1CCCN1CCc1ccc(-c2ccc(Cc3nnn[nH]3)cc2)cc1 [Compound 37, (R)-5-((4′-(2-(2-Methylpyrrolidin-1-yl)ethyl)biphenyl-4-yl)methyl)-1H-tetrazole]
3.3 | COC(=O)C1(c2ccc(-c3ccc(CCN4CCC[C@H]4C)cc3)cc2)CCCC1 [Compound 25, (R)-Methyl 1-(4′-(2-(2-Methylpyrrolidin-1-yl)ethyl)biphenyl-4-yl)cyclopentanecarboxylate]
0.99 | COC(=O)CNC(=O)CCc1ccc(-c2ccc(CCN3CCC[C@H]3C)cc2)cc1 [Compound 24, (R)-Methyl 2-(3-(4′-(2-(2-Methylpyrrolidin-1-yl)ethyl)biphenyl-4-yl)propanamido)acetate]
8.1 | C[C@@H]1CCCN1CCc1ccc(-c2ccc(CC(=O)O)cc2)cc1 [Compound 2, (R)-2-(4′-(2-(2-Methylpyrrolidin-1-yl)ethyl)biphenyl-4-yl)acetic Acid]
0.96 | CCOC(=O)C1CCN(C(=O)CCc2ccc(-c3ccc(CCN4CCC[C@H]4C)cc3)cc2)CC1 [Compound 35, (R)-Ethyl 1-(3-(4′-(2-(2-Methylpyrrolidin-1-yl)ethyl)biphenyl-4-yl)propanoyl)piperidine-4-carboxylate]
1.8 | CCOC(=O)CCc1ccc(-c2ccc(CCN3CCC[C@H]3C)cc2)cc1 [Compound 11, (R)-Ethyl 3-(4′-(2-(2-Methylpyrrolidin-1-yl)ethyl)biphenyl-4-yl)propanoate]
0.97 | C[C@@H]1CCCN1CCc1ccc(-c2ccc(CCCC(=O)O)cc2)cc1 [Compound 45, (R)-4-(4′-(2-(2-Methylpyrrolidin-1-yl)ethyl)biphenyl-4-yl)butanoic Acid]
3.1 | C[C@@H]1CCCN1CCc1ccc(-c2ccc(C(C)(C)C(=O)O)cc2)cc1 [Compound 10, (R)-2-Methyl-2-(4′-(2-(2-methylpyrrolidin-1-yl)ethyl)biphenyl-4-yl)propanoic Acid]
0.67 | CCOC(=O)COCc1ccc(-c2ccc(CCN3CCC[C@H]3C)cc2)cc1 [Compound 4, (R)-Ethyl 2-((4′-(2-(2-Methylpyrrolidin-1-yl)ethyl)biphenyl-4-yl)methoxy)acetate]
1.5 | COC(=O)CCCNC(=O)C1(c2ccc(-c3ccc(CCN4CCC[C@H]4C)cc3)cc2)CCCC1 [Compound 16, (R)-Methyl 4-(1-(4′-(2-(2-Methylpyrrolidin-1-yl)ethyl)biphenyl-4-yl)cyclopentanecarboxamido)butanoate]

Test system: histamine-induced scratching behavior in mice
Assay: Histamine-induced model for pruritus (Example 6)
Format: in vivo, C57BL/6j male mice
Details: oral administration, histamine s.c. 30 min post-dosing, bouts counted 5-15 min, FIG. 6
Procedure: H3R inhibitors, Compound 3 and Compound 11, were dissolved in 0.5% methylcellulose at the appropriate concentration and 100 μL were administered orally to 8-week-old C57BL/6j male mice. Thirty minutes post-dosing, 25 μL of 40 mg/mL histamine solution was injected subcutaneously at the rostral part of the back. Mice were video recorded and the number of scratching bouts that occurred between 5 and 15 minutes was counted after histamine injection.

Structure (SMILES) | histamine-induced scratching behavior (number of scratching bouts)
CCOC(=O)CCc1ccc(-c2ccc(CCN3CCC[C@H]3C)cc2)cc1 [Compound 11, (R)-Ethyl 3-(4′-(2-(2-Methylpyrrolidin-1-yl)ethyl)biphenyl-4-yl)propanoate] | effectively inhibit histamine-induced pruritus; also recorded: inhibit histamine-induced scratching behavior
